Measured values published in US20240216513A1, “FATTY ACID-BIFUNCTIONAL DEGRADER CONJUGATES AND THEIR METHODS OF USE” (Novartis AG, priority 2021, published 2024).

Experiments:
[1] = BTK FAC plasma stability assay, PBS buffer arm; assay type: physicochemical; settings: incubation to 24 h
Outline: (§1)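 Compound from a 500 µM acetonitrile:water working solution was spiked into K3-EDTA plasma or Dulbecco's PBS and incubated with shaking at 38 °C. Samples taken at 0, 2, 6 and 24 h were precipitated with cold acetonitrile containing glyburide internal standard. Semi-quantitative LC-MS/MS used analyte:internal standard peak area ratios.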

[2] = BTK FAC plasma stability assay, mouse plasma; assay type: in vitro ADME; settings: incubation to 24 h
Outline: as §1

[3] = BTK FAC plasma stability assay, rat plasma; assay type: in vitro ADME; settings: incubation to 24 h
Outline: as §1

[4] = BTK FAC plasma stability assay, dog plasma; assay type: in vitro ADME
[5] = In vivo pharmacokinetic study in mice (i.v. or s.c.), FAC and payload in blood; design: species or system mouse; settings: for AUC: male, C57/B16, whole blood
[6] = In vivo pharmacokinetic study in rats (i.v. or s.c.), FAC and payload in blood; design: species or system rat; settings: for AUC: male, Sprague-Dawley, rat, whole blood, 1 umol/kg
Description: Pharmacokinetic studies were conducted in male C57/B16 mice; male Sprague-Dawley rats; male Beagle dogs and male Cynomolgus monkeys. 3 animals per group were used for each study performed. All studies were performed in accordance with local animal welfare regulations.
[…] Serial 30 µL blood samples were collected via venipuncture of the tail vein in mouse, and via the cannulated jugular vein in rats at defined timepoints to 216 hours (into EDTA coated tubes).
Each blood sample was precipitated with acetonitrile containing internal standard; samples were mixed and centrifuged (20 minutes 4000 RPM at 4° C.). Supernatant was transferred to a microwell plate and evaporated under nitrogen at 60° C. Residue was resuspended in acetonitrile/water (7:3 v/v); plate sealed and transferred to an ultrasonic bath for 3 minutes, prior to analysis. Quantification was performed by LC-MS/MS (SciexAP16500 Q-trap, Shimadzu Nexera X2) using a Phenomenex Polar RP analytical column (2.5 μm particle size; 50×2 mm). The mobile phase consisted of solvent A (0.1% formic acid in water) and solvent B (0.1% formic acid in acetonitrile). The fatty acid conjugate and API were detected using multiple reaction monitoring.
Data analysis and calculation of non-compartmental pharmacokinetic parameters was
performed using an in-house analysis. Following intravenous administration whole blood clearance was calculated by the dose administered divided by AUC0-inf. Volume of distribution at steady state was calculated as MRT*CL, where MRT is the mean residence time, calculated by AUMC0-inf/AUC0-inf. The half-life (t1/2) of the terminal elimination phase was calculated by 0.693/λ. For both intravenous and subcutaneous administration, the systemic exposures were determined by calculating the area under the blood concentration time curve (AUC) from time zero to the last observed quantifiable concentration (AUClast) by using the linear trapezoidal method and normalised to dose. Extrapolated AUC (AUC0-inf) is calculated by addition of AUClast and AUCtlast-inf; where AUCtlast-inf is calculated based on Clast/λ. The slope of the terminal elimination phase was estimated by linear regression of the terminal data points (minimum 3 points) from a natural log concentration versus time plot of the data. Bioavailability was calculated as the dose normalized ratio of […] AUCinf to intravenous AUCinf (100*[SC AUCinf/SC dose]/[IV AUCinf/IV dose]). Following subcutaneous administration Cmax is calculated as the average maximum observed peak concentration and Tmax is the time associated with the determined Cmax.
For PK experiments, non-tumor bearing mice or rats were treated once (10 mL/kg) with a compound either i.v. or s.c. Serial blood samplings from the tail vein (5-20 μl) were collected during the course of the experiment. For PK/PD experiments in tumor-bearing mice, compound was administered once (10 mL/kg) either i.v. or s.c. Animals were randomized into groups of n=3 and tissue samples were collected at several time points. At the times indicated, animals were anaesthetized by exposure to 2-3% v/v isoflurane in medical oxygen. They were sacrificed without recovering from anesthetic after blood sampling into commercially prepared EDTA coated tubes (Milian, cat #TOM-14C) in order to extract plasma. The tissues were excised, weighted and rapidly frozen in liquid nitrogen. Later, tumors were cryogenic dry pulverized with the CryoPrep™ system (model CP-02, Covaris). For efficacy experiments in ectopic tumor-bearing mice, animals were randomized into groups of n=6 for a mean tumor size of 100 mm^3 and compound was administered either i.v. q3w or s.c. q2w. When implanted in brain, animals were randomized into groups of n=4 for a mean bioluminescence of 1.0-2.0E+06 [p/s]/[ρW/cm^2] and compound was administered i.v. qw. Tumor response were reported with the measures of tumor volumes or bioluminescence from the treatment start. […]

BTK C481S = biological target: T1, BTK C481S (Homo sapiens, UniProt Q06187, C481S); test: PD screen in TMD8 BTK C481S mutant tumor-bearing mice, BTK levels and compound concentrations in blood and tumor; assay type: in vivo, mouse; settings: 20 mgL/kg (unconjugated V)
T1 construct: endogenous in cells; host or cells: TMD8 BTK C481S mutant tumour xenografts in mice
T1 sequence (Q06187 whole entry C481S): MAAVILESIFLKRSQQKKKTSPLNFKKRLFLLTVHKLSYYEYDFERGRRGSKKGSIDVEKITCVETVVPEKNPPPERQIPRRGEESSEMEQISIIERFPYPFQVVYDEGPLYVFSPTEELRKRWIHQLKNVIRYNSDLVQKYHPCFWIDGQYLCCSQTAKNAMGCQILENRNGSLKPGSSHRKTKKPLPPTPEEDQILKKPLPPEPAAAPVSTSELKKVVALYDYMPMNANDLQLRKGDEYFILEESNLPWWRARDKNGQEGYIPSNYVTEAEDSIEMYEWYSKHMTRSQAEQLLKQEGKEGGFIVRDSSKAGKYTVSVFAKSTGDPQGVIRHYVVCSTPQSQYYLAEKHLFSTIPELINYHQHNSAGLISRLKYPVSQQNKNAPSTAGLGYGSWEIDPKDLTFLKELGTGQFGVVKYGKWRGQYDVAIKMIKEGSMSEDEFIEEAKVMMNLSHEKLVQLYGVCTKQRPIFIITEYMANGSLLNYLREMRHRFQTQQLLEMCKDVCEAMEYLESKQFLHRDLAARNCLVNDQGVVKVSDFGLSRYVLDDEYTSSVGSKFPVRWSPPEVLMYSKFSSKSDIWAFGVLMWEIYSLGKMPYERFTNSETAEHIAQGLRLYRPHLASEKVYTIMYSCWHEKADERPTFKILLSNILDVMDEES
Outline: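 Single compound injection in mice bearing TMD8 BTK C481S tumors, groups of 2, with blood and tumor sampled at day 0, 4, 7 and sometimes 10. Compound levels measured by UPLC/MS-MS and BTK levels by Meso Scale Discovery.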

- Plasma stability (h) PBS [1]: >48 h
- Plasma stability (h) mouse [2]: 27.1 h
- Plasma stability (h) rat [3]: 39.3 h
- Plasma stability (h) dog [4]: >48 h
- Payload C0-uM (unconjugated degrader dosed, first payload cell) ([5]; API i.v., species taken as mouse, listed as note (1 umol/kg), head 10 umol/kg): 8.1 µM
- AUC ([5]; iv, API i.v., species taken as mouse, listed as note (1 umol/kg), head 10 umol/kg, read-out: Payload AUC-uM.h (unconjugated degrader dosed, first payload cell)): 8.2 µM·h
- AUC ([5]; sc, mouse, subcutaneous dosing, unconjugated Compound V at 1 umol/kg, read-out: Payload AUC): 8.2 µM·h
- Payload C0-uM (unconjugated degrader dosed, second payload cell) ([6]; API i.v., species taken as rat, listed as note (1 umol/kg)): 1.1 µM
- AUC ([6]; iv, API i.v., species taken as rat, listed as note (1 umol/kg), read-out: Payload AUC-uM.h (unconjugated degrader dosed, second payload cell)): 0.57 µM·h
- AUC ([6]; sc, subcutaneous dosing, unconjugated Compound V at 1 umol/kg, read-out: Payload AUC): 0.57 µM·h
- Duration of BTK degradation in mouse ≥90% (BTK C481S; i.v.): <4 days
SMILES: COc1ccc(C(=O)N2CCC3(CCN(CCc4ccc(-c5cc6c(-c7cc(F)cc(NC(=O)c8ccc(C(C)(C)O)cc8F)c7C)ncnc6[nH]5)cc4)CC3)CC2)cc1N1CCC(=O)NC1=O [Compound V, N-(3-(6-(4-(2-(9-(3-(2,4-Dioxotetrahydropyrimidin-1(2H)-yl)-4-methoxybenzoyl)-3,9-diazaspiro[5.5]undecan-3-yl)ethyl)phenyl)-7H-pyrrolo[2,3-d]pyrimidin-4-yl)-5-fluoro-2-methylphenyl)-2-fluoro-4-(2-hydroxypropan-2-yl)benzamide]
- Duration of BTK degradation in mouse ≥90% (days) (BTK C481S; s.c.): Not tolerated
